# In ChEMBL document CHEMBL1201862, “PubChem BioAssay data set” (2004):
# Structures can show the parent of a compound that is named as a salt. The source made the active and inactive calls.
# Key:
# HeLa = assay: HeLa cell cytotoxicity, dose response, cytotoxicity control for MITF activator project, CellTiter-Glo luminescence, cherry-pick samples (AID 540259); type: functional, cell-based; conditions: Homo sapiens
# [1] = biological target: T1, Heat shock factor protein 1 (Mus musculus, UniProt P38532); assay: HSF1 potentiators in luciferase reporter cells, confirmation, cell-based, NIH3T3, luminescence, dose retest (AID 435004); type: functional;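 further: stress induced by proteasome inhibitor MG132 added 30 min after compound; luciferase reporter driven by HSF1 response element in NIH3T3 cells; actives raise luminescence as potentiators of the MG132 stress response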
# T1 sequence (P38532 whole entry): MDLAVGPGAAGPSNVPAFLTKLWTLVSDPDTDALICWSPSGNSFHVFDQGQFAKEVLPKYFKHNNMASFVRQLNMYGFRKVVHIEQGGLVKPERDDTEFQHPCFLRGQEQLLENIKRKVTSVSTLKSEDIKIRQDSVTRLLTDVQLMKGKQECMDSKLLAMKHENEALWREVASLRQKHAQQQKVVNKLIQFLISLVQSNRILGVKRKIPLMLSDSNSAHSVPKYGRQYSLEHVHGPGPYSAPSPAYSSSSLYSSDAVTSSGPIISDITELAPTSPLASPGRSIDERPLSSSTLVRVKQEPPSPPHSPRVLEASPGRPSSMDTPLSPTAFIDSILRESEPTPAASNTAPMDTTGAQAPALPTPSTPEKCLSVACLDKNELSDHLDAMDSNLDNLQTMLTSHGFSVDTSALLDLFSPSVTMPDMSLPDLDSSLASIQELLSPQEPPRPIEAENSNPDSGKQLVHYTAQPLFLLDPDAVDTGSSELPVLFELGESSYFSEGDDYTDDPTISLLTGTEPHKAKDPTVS
# Genome polyprotein = Genome polyprotein (dengue virus type 2, UniProt P29990); assay: Dengue-2 NS5 methyltransferase inhibitors, primary screen, biochemical, confirmation dose response (AID 588689); type: functional
# Sequence of Genome polyprotein (P29990 2492-3391 limits assumed): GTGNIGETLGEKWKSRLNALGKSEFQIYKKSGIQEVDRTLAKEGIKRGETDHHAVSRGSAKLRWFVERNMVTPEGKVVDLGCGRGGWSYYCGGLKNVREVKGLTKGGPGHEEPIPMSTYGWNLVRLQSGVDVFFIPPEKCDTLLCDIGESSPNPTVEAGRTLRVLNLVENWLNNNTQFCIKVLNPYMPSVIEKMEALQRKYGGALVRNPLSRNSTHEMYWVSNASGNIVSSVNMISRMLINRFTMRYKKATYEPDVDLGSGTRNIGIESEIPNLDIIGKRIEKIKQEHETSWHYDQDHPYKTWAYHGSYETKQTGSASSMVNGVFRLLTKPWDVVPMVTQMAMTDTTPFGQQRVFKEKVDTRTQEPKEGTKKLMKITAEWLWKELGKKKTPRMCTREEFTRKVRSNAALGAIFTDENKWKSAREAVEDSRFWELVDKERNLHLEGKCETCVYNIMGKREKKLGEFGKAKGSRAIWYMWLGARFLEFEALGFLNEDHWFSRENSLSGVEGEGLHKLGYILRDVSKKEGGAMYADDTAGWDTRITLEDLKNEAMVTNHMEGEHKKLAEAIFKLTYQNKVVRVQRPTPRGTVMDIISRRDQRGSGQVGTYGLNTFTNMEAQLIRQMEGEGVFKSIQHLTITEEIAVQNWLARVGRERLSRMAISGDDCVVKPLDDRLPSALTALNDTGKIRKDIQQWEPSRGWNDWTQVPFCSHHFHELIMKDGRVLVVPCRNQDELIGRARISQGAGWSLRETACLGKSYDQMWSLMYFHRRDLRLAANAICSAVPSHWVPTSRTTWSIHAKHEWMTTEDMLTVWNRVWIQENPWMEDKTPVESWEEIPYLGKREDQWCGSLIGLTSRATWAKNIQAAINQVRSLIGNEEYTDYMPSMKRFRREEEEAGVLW
# [2] = biological target: Voltage-gated inwardly rectifying potassium channel KCNH2 (Homo sapiens, UniProt Q12809); conditions: Potency;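 further: confirmatory quantitative high-throughput screen measuring inhibition of hERG channel activity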
# Sequence of Voltage-gated inwardly rectifying potassium channel KCNH2 (Q12809 whole entry): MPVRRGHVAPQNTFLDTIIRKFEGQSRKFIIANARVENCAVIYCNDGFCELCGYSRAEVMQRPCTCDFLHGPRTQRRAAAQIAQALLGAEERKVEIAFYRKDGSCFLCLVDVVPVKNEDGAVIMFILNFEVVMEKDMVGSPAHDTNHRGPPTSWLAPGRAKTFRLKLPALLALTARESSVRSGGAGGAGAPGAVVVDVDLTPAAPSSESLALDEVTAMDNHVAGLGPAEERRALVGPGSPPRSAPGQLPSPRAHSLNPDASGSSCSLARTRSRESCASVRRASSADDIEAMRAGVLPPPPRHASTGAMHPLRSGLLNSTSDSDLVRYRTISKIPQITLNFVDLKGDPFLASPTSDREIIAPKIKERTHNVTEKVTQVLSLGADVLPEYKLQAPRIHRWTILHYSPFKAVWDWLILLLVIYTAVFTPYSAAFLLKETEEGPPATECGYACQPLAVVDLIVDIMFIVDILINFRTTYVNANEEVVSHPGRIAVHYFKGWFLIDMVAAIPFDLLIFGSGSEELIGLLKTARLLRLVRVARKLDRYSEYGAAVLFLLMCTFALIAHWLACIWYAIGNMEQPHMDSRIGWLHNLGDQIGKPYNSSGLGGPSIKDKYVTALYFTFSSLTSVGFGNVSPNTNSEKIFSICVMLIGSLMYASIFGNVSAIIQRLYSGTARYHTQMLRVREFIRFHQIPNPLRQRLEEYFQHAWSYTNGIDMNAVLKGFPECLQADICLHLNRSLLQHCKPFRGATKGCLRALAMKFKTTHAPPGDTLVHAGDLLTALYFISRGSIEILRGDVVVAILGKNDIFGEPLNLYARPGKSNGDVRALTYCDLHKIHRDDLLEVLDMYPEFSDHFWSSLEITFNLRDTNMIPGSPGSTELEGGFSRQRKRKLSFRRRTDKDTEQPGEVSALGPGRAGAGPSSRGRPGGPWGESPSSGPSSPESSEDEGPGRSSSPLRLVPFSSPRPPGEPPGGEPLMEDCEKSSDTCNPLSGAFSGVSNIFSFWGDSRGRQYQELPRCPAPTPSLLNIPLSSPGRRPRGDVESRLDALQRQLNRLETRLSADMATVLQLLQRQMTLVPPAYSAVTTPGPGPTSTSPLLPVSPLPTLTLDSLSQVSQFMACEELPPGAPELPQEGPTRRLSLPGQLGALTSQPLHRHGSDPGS
# [3] = inhibitors of intracellular T. cruzi replication, confirmation, NIH3T3 host cells, beta-gal luminescence (AID 2044); type: functional, cell-based;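 further: intracellular parasites grown in NIH/3T3 mouse fibroblasts as host cells; luminescent beta-galactosidase reporter signal from transgenic T. cruzi replicating inside host cells; inhibitors lower the luminescence signal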
# [4] = cytotoxicity toward NIH3T3 fibroblasts, dose response, counter-screen, cell-based, ATP luminescence, mouse fibroblasts (AID 2010); type: functional;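 further: cells exposed to compound for about 90 hours before reading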
# Prothrombin = Prothrombin (Homo sapiens, UniProt P00734); assay: Thrombin 1536 HTS Dose Response Confirmation. [Related pubchem assays: 1046 (Thrombin 1536 HTS; hits were confirmed in this assay)]; type: functional
# [5] = biological target: T2, Corticotropin-releasing factor receptor 2/Corticotropin-releasing factor-binding protein (Homo sapiens, UniProt P24387+Q13324); assay: activators of CRF receptor 2 with binding protein – uHTS hits, confirmation (AID 602473); type: functional; conditions: read-out: EC50_Mean
# T2 sequence (Q13324 whole entry): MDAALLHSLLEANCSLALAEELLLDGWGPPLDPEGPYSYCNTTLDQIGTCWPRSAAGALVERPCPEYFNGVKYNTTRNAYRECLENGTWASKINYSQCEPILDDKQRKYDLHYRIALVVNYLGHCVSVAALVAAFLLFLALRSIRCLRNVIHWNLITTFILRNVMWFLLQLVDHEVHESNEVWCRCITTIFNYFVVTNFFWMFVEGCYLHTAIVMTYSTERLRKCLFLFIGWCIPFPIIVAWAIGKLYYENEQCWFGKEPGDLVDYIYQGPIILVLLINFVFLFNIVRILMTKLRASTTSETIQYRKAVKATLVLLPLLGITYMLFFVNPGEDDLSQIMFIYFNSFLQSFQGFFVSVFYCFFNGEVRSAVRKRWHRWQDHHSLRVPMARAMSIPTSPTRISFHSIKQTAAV
# T2 sequence (P24387 whole entry): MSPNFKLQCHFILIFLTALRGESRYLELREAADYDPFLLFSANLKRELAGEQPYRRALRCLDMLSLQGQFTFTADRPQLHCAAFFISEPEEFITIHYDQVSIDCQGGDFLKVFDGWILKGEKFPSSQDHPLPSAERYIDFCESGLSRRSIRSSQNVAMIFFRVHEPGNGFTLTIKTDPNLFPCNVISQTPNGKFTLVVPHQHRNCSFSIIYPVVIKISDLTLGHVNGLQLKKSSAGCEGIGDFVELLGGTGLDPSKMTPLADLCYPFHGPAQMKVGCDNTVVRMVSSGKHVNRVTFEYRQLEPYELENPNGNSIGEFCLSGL
# Estrogen receptor = biological target: T3, Estrogen receptor (Homo sapiens, UniProt P03372);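 further: potency for inhibiting coactivator peptide recruitment to the receptor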
# T3 sequence (P03372 whole entry): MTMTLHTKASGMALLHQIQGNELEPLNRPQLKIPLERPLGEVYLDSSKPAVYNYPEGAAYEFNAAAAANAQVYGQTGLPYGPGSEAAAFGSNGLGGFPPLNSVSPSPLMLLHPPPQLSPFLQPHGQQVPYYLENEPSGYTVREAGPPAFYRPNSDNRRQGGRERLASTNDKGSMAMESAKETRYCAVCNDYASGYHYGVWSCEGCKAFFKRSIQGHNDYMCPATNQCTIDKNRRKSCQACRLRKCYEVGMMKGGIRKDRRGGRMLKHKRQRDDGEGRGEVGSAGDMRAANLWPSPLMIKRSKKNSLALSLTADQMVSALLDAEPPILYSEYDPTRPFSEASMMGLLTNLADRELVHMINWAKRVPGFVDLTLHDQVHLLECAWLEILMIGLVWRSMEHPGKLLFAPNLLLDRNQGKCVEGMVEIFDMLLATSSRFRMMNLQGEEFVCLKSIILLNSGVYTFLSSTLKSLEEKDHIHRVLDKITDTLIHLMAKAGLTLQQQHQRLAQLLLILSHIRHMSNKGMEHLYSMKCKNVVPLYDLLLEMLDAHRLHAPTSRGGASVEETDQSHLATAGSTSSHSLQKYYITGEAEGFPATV
# [6] = biological target: T4, Polyadenylate-binding protein 1 (Homo sapiens, UniProt P11940); assay: PABP1 MLLE–PAM2 interaction inhibitors, dose response, miRNA deadenylation inhibitor project, biochemical, fluorescence polarization, Cy5-PAM2 peptide, secondary (AID 602260); type: functional; conditions: read-out: IC50_Mean
# [7] = biological target: T4, Polyadenylate-binding protein 1; assay: PABP1 MLLE–PAM2 binding inhibitor potency, dose response, biochemical, fluorescence polarization, FITC-PAM2 peptide (AID 602259); type: functional; conditions: read-out: IC50_Mean
# [8] = growth suppression of PTEN-null colon cells, dose response, cell-based, HCT116 PTEN knockout (AID 1047); type: functional;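 further: HCT116 colon tumor cells with PTEN knocked out; cells exposed to compound for 60 hours before readout; potency for loss of cell viability measured by luminescence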
# [9] = growth suppression of beta-catenin-knockout colon cells, dose response, cell-based, HCT116, human colon tumor (AID 1045); type: functional;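 further: HCT116 colon tumor cells with beta catenin knocked out; cells exposed to compound for 60 hours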
# [10] = biological target: T5, Apoptotic protease-activating factor 1 (Homo sapiens, UniProt O14727); type: functional
# T5 sequence (O14727 whole entry): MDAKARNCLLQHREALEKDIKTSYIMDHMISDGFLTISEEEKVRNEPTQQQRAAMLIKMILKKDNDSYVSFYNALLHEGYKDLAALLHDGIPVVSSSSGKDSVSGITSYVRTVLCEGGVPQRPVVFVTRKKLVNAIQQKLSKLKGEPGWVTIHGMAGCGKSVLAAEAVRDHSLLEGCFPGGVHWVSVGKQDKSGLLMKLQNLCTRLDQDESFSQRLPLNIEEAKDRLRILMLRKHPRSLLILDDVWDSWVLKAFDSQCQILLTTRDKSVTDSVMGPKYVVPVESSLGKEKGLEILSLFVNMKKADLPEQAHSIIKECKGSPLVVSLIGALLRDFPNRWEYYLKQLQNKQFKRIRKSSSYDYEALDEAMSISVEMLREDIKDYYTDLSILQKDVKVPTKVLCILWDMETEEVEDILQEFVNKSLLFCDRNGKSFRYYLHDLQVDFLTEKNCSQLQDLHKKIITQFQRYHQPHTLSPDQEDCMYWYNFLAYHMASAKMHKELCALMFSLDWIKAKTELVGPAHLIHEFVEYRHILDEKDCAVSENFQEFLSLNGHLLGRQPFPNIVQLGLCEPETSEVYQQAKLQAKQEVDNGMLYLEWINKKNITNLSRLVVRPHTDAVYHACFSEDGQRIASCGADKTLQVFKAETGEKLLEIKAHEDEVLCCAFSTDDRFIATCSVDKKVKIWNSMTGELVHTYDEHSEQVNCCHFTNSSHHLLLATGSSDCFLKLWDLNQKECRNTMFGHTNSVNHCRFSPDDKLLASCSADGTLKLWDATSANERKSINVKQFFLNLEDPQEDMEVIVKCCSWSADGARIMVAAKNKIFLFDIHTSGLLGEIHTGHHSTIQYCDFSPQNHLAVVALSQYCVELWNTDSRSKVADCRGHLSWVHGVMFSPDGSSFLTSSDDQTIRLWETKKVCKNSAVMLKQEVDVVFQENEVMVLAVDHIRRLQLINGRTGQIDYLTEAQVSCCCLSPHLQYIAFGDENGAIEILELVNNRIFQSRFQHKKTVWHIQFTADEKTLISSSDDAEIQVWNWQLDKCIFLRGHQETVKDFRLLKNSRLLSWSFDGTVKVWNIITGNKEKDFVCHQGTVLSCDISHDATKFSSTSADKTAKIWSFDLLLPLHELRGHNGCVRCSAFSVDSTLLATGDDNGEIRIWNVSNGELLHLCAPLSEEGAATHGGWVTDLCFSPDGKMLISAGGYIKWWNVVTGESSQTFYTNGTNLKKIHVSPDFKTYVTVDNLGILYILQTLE
# Fatty acid synthase [11] = biological target: T6, Fatty acid synthase (Homo sapiens, UniProt P49327); assay: FAS thioesterase domain inhibitors, dose response, biochemical, endpoint fluorescence intensity, uHTS hits (AID 624327); type: functional;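 further: fluorescence from hydrolysis of an O-methyl fluorescein acyl ester substrate by the enzyme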
# T6 sequence (P49327 whole entry, the tested form may be a part): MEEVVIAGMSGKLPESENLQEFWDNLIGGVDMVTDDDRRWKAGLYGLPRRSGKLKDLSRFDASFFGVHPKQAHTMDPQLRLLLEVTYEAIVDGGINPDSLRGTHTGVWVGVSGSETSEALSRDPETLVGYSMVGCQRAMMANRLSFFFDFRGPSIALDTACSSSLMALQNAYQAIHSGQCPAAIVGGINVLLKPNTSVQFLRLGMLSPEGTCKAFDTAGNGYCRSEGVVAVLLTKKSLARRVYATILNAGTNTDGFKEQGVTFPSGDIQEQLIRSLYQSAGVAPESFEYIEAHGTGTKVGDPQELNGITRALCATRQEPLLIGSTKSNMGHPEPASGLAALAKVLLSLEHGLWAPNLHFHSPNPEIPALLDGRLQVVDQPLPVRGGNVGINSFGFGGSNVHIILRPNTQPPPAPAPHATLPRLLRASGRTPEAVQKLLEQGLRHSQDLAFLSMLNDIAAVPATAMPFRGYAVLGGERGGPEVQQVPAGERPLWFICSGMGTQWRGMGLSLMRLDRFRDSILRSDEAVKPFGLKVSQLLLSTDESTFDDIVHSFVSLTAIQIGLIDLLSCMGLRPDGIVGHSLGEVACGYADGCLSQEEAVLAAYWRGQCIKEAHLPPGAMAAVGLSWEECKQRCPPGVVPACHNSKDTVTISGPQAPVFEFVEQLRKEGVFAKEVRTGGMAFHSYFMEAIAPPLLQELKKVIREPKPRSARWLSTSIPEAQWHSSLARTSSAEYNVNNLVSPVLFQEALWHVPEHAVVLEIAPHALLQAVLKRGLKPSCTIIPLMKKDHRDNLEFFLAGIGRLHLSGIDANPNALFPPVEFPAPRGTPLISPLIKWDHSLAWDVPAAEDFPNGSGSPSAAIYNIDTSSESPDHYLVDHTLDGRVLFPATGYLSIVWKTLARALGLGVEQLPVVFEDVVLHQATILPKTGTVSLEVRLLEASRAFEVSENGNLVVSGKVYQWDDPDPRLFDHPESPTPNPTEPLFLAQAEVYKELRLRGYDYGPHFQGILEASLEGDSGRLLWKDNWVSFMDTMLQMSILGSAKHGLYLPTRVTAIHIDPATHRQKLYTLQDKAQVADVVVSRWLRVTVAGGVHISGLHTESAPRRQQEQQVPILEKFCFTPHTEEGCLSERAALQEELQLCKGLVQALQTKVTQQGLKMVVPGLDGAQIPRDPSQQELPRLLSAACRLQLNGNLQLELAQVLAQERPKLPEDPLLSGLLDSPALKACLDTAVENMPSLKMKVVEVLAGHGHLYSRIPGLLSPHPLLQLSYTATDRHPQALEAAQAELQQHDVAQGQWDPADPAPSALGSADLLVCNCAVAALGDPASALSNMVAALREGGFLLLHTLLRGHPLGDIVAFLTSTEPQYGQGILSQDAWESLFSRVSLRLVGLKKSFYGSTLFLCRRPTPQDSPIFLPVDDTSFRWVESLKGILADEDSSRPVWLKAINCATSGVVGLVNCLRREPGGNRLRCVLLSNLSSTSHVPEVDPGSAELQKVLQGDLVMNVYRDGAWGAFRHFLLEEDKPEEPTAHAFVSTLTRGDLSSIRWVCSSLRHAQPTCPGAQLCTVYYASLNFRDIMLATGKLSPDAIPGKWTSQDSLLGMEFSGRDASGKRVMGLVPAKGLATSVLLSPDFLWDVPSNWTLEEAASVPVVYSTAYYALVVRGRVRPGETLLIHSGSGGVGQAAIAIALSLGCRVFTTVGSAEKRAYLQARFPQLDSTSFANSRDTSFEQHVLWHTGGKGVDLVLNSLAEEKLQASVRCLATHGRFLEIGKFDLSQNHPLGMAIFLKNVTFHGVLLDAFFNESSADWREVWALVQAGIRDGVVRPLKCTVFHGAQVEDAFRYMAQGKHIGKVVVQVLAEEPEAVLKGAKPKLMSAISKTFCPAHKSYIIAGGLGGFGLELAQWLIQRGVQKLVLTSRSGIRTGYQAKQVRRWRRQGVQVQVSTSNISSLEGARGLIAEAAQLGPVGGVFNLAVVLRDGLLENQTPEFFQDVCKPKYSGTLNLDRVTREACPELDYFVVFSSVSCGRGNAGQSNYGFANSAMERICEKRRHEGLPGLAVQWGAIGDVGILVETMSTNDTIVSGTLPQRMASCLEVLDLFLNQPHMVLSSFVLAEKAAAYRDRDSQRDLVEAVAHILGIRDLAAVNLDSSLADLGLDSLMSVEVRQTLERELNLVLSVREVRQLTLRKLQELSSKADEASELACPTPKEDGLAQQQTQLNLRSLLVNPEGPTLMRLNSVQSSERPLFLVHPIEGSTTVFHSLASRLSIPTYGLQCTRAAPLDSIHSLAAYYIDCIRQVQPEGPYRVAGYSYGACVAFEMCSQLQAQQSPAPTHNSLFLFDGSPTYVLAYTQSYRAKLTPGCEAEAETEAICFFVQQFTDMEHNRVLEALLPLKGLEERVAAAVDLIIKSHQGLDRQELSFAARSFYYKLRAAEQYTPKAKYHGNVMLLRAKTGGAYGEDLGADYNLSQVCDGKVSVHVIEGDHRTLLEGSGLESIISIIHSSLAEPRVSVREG
# Fatty acid synthase [12] = biological target: T6, Fatty acid synthase; assay: FAS thioesterase domain inhibitors, dose response, biochemical, kinetic fluorescence intensity (AID 624326); type: functional;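 further: rate of fluorescence rise from hydrolysis of a fluorogenic O-methyl fluorescein ester substrate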
# BJ [13] = assay: cytotoxicity toward BJ-TERT fibroblasts, dose response, cell-based, RAS-independent, luminescence (AID 1933); type: functional; conditions: Homo sapiens
# BJ [14] = assay: cells; type: functional, cell-based; conditions: Homo sapiens
# BJ [15] = assay: cytotoxicity toward BJ-TERT-LT-ST fibroblasts, dose response, cell-based, RAS-independent, luminescence (AID 1935); type: functional; conditions: Homo sapiens;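 further: BJ fibroblasts immortalized with TERT plus LT and ST oncogenes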
# [16] = cytotoxicity toward DRD oncogenic fibroblasts, dose response, cell-based, non-viral oncogenic, luminescence (AID 1934); type: functional; conditions: Homo sapiens
# BJ [17] = assay: cytotoxicity toward Ras-transformed BJeLR fibroblasts, dose response, cell-based, alamar blue fluorescence, cherrypicked samples (AID 2631); type: functional; conditions: Homo sapiens;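 further: confirmatory dose-response assay in RAS-dependent BJ fibroblasts engineered with TERT, LT and ST, with cytotoxicity read by fluorescence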
compound,measurement,setting,value
CC(=O)c1ccc(NC(=O)c2noc3c2CCCCC3)cc1,AC50,HeLa,> 350 µM (inactive)
O=C(O)C(Cc1ccccc1)N1C(=O)c2c(Cl)c(Cl)c(Cl)c(Cl)c2C1=O (stereo not given),EC50,[1],37.1 µM (active)
same,IC50,Genome polyprotein,39.7 µM (active)
[H][C@]12[N@]3CC=C[C@@]1(CC)[C@@H](OC(C)=O)[C@](O)(C(=O)OC)C1N(C)c4cc(OC)c([C@@]5(C(=O)OC)CC6CN(CCc7c5[nH]c5ccccc75)CC(O)(CC)C6)cc4[C@@]12CC3 (stereo not given in full),AC50,[2],35.5 µM (inconclusive)
Cc1cc(CN(C)C(=O)c2ccc3nc(Cc4ccccc4F)oc3c2)on1,AC50,HeLa,68.2 µM (active)
C[C@H](N)CN1CCc2ccc(Br)cc21,AC50,[2],20 µM (inconclusive)
C(=NC1CCCCC1)=NC1CCCCC1 [DICYCLOHEXYLCARBODIIMIDE],AC50,[2],70.8 µM (inconclusive)
Cc1ccc(Nc2cc(C)c3c(O)cccc3n2)cc1C,EC50,[3],2.81 µM (active)
same,EC50,[4],> 30 µM (not active)
same,AC50,HeLa,34.5 µM (active)
COC(=O)[C@H]1[C@H]2C[C@H]3c4[nH]c5ccccc5c4CCN3C[C@H]2CC[C@@H]1O [RAUWOLSCINE HYDROCHLORIDE],AC50,[2],25.1 µM (inconclusive)
CCCCC1=CC2=CC(=O)C(C)(OC(=O)CC)C(=O)C2=CN1Cc1ccc(OC)cc1 (stereo not given),IC50,Genome polyprotein,> 100 µM (active)
CCOC(=O)C1OC1c1ccccc1 (stereo not given),AC50,[2],35.5 µM (inconclusive)
Cn1c(CN2CCCCC2)nc2cc(NS(=O)(=O)c3ccc(Cl)cc3)ccc21,IC50,Prothrombin,1.06 µM (active)
same,EC50,[5],> 53 µM (inactive)
O=S(=O)(/N=C(/Sc1ccccc1)c1ccccc1)c1ccccc1,IC50,Estrogen receptor,10.2 µM (active)
same,IC50,[6],> 66 µM (inactive)
same,IC50,[7],> 66 µM (inactive)
CC(=O)Nc1c(-c2ccc3ccccc3c2)nc2ccccn12,AC50,HeLa,213 µM (active)
Cc1ccc2nc(O)c(-c3nc4ccccn4c3NCc3ccco3)cc2c1,IC50,Estrogen receptor,25.7 µM (active)
same,EC50,[8],18.7 µM (active)
same,EC50,[9],28.4 µM (active)
CCOC(=O)Cc1ccc(NS(=O)(=O)c2ccc(SC)cc2)cc1,IC50,Estrogen receptor,> 50 µM (not active)
COc1ccc(CN(C)C(=O)c2cc(S(=O)(=O)NCc3ccccc3)ccc2C)c(OC)c1,IC50,[10],> 100 µM (inactive)
CCOc1ccc(C2CC(=O)N(Nc3ccc([N+](=O)[O-])cc3[N+](=O)[O-])C2=O)cc1 (stereo not given),IC50,Prothrombin,> 50 µM (not active)
same,IC50,Fatty acid synthase [11],1.84 µM (active)
same,IC50,Fatty acid synthase [12],1.44 µM (active)
C1=C(c2cc3ccccc3cn2)CCCC1,AC50,HeLa,51.3 µM (active)
O=[N+]([O-])c1ccccc1N/N=C\c1ccccc1Cl,EC50,BJ [13],> 150 µM (not active)
same,EC50,BJ [14],103 µM (active)
same,EC50,BJ [15],> 150 µM (not active)
same,EC50,[16],29.8 µM (inconclusive)
same,EC50,BJ [17],> 133 µM (inactive)
C#C[C@]1(O)CC[C@H]2[C@@H]3CCC4=Cc5oncc5CC4(C)[C@H]3CCC21C (stereo not given in full),AC50,[2],1.58 µM (inconclusive)
CCn1cnc2c(Nc3cccc(Cl)c3)nc(N[C@@H]3CCCC[C@@H]3N)nc21,AC50,[2],17.8 µM (inconclusive)
